Values of other authors in US10537528B2 (The Regents of the University of California, priority 2015, dated 2020).

What was measured:
[1] = system: obese individuals with NASH; settings: treated for 4-12 weeks
[2] = system: intracellular cystine (circulating white blood cells)
[3] = system: obese children who had steatosis; settings: 400-1000 IU/day for 4-10 months

Molecule: CC(=O)N[C@@H](CS)C(=O)O [N-acetylcysteine]
- aminotransferase levels and gamma-GT [1]: improvement
- subject body mass index [1]: no reported change

Molecule: NCCS [cysteamine]
- time to observed decrease in leukocyte cystine ([2]; delivery into the small intestine (WO 2007/089670)): within an hour
- depletion of intracellular cystine ([2]; taken regularly, measured in circulating white blood cells): up to 90%

Molecule: vitamin E
- mean AST levels after treatment ([3]; decreased from 104±61 IU/L, P<0.002): 33±11 IU/L
- mean ALT levels after treatment ([3]; decreased from 175±106 IU/L, P<0.01): 40±26 IU/L
